Results from patent US20080227638A1, “Use of abscisic acid to enhance growth control” (priority 2007, published 2008).

What was measured:
Assay type in all cases: in vivo
[1] = test system: Kentucky bluegrass; assay: Greenhouse Kentucky bluegrass height and quality, ABA and paclobutrazol (Example 2)
Experimental: (§1) Greenhouse studies were conducted at the Research Farm of Valent BioSciences Corporation (Long Grove, Ill.). Grasses were grown in pots (18 cm in diameter and 18 cm in height) filled with Promix BX (available from Premier Horticulture Inc. Quakertown, Pa.). Grass was irrigated daily by an overhead irrigation system. The irrigation system was set up with multiple Tornado Mist Spray Heads (10 GPH at 40 PSI-Wetted diameter, NDS/Raindrip, Woodland Hills, Calif.). Spray heads were 1-meter apart from each other and 75 cm above grass canopy. Grass was cut with a scissor at 2.5 cm height and fertilizer (1 g/L all purpose fertilizer 20-20-20, available from The Scotts Company, Marysville, Ohio) was applied once per week.
(§2) Chemical solutions were prepared with distilled water. Tween 20 (0.05% v/v) was used as an, adjuvant. Both trinexapac-ethyl (commercial product Primo Maxx, 11.3% active ingredient) and paclobutrazol (commercial product Trimmit 2SC, 22.3% active ingredient) were purchased from Syngenta Crop Protection Inc. (Greensboro, N.C.). Uniconazole-P (commercial product Sumagic, 0.55% active ingredient) was obtained from Valent U.S.A. Corporation (Walnut Creek, Calif.).
(§3) When treated with paclobutrazol or uniconazole-P, turfgrass received irrigation within 24 hours after application to flush chemicals to the root zone. After treatment, turfgrasses were arranged in a randomized complete block experimental design. Turfgrass quality, turfgrass height or clip fresh weight was measured on assigned dates. Turfgrass quality was visually rated on a 0-9 scale based on the color, uniformity and density of the grass with 0 as the worst and 9 as the best. Turfgrass height was measured as the distance between canopy surface and soil. Clips were collected from each plot; all plots were cut to a uniform height.
(§4) All experiments were randomized complete block experimental design. Data were analyzed by analysis of variance. Duncan's new multiple range tests at α=0.05 were used for mean separations.
Kentucky bluegrass sod (unknown variety) was purchased from Deak sod farms, Inc. (Union Grove, Wis.). Grass was grown in the greenhouse in pots (n=6 pots per treatment) for establishment before treatment. […] Turfgrass quality was evaluated at 7 days after treatment, and turfgrass height was measured at 7 and 28 days after treatment. Tween 20 (0.05% w/v) was included as an adjuvant. The turfgrass canopy was cut every 7 days during the experimental period.

[2] = test system: creeping bentgrass; assay: Golf course green creeping bentgrass height, clip weight and quality, ABA and uniconazole-P (Example 5); details: 0.5 ppm uniconazole-P
Experimental: Field studies were conducted at the nursery green or the practice green at Countryside golf course (Mundelein, Ill.). Both greens were sand based and growing Penncross creeping bentgrass. Grass was managed with typical Illinois golf course management practices.
as §2, §3, §4
Tween 20 (0.05% w/v) was included as an adjuvant.

[3] = test system: Bermudagrass; assay: Bermudagrass clip weight, ABA and uniconazole-P (Example 7); details: 50 ppm uniconazole-P; 7 days after treatment
Experimental: as §2, §3, §4

[4] = test system: Kentucky bluegrass; assay: Greenhouse Kentucky bluegrass height, ABA and uniconazole-P (Example 3); details: 10 ppm uniconazole-P
Experimental: as §1, §2, §3, §4
Kentucky bluegrass sod (unknown variety) was purchased from Deak sod farms, Inc. (Union Grove, Wis.). Grass was grown in the greenhouse in pots (n=6 pots per treatment) for establishment before treatment. […] Tween 20 (0.05% w/v) was included as an adjuvant. The turfgrass was cut every 7 days.

Row | Compound | Turfgrass height ([1]; 50 ppm paclobutrazol, 7 days after treatment) | Turfgrass height ([1]; 50 ppm paclobutrazol, 28 days after treatment) | Turfgrass height ([1]; 500 ppm paclobutrazol, 7 days after treatment) | Turfgrass height ([1]; 500 ppm paclobutrazol, 28 days after treatment) | Clip weight ([2]; 7 days after treatment) | Turfgrass height ([2]; 7 days after treatment) | Clip weight ([2]; 49 days after treatment) | Turfgrass height ([2]; 49 days after treatment) | Effect on turfgrass quality ([2]; throughout the study (not shown)) | Clip weight [3] | less clip weight compared to control [3] | Turfgrass height ([4]; 7 days after treatment) | Turfgrass height ([4]; 42 days after treatment)
1 | CC(C)(C)[C@@H](O)[C@@H](Cc1ccc(Cl)cc1)n1cncn1 [paclobutrazol] | 12.3 cm | 8.6 cm | 12.1 cm | 6.2 cm |  |  |  |  |  |  |  |  | 
2 | CC(C)(C)[C@H](O)/C(=C\c1ccc(Cl)cc1)n1cncn1 [uniconazole-P] |  |  |  |  | 2.4 g | 6.0 cm | 3.3 g | 4.8 cm | No effect on turfgrass quality | 1.4 g | 14% | 12.3 cm | 9.8 cm
